Test [1] deals with platelet aggregation induced by ADP in human platelet-rich plasma (PRP). Nature of the test: Human platelet aggregation inhibitory activity (ADP-induced, platelet-rich plasma). It is filed as cell-based. Conditions: 8 min, ADP final concentration 20 μM, maximum aggregation rate, measured for 8 minutes. The protocol: A blood collecting syringe containing 1/10 volume of a 3.8% sodium citrate solution was used to collect blood from radial vein of a healthy person. The collected blood was centrifuged at 180×g at room temperature for 10 minutes to separate the supernatant (platelet-rich plasma; PRP). After PRP was separately collected, the remaining blood was centrifuged at 1,600×g for 10 minutes to separately collect platelet-poor plasma (PPP) of the upper layer. PRP was left at rest at 16° C. for 30 minutes, and subsequently used for measurement.
200 μL of the separately collected PRP was dispensed into a cuvette for the aggregation test, and 1 μL of dimethylsulfoxide (control) or a test compound solution diluted with dimethylsulfoxide was added, followed by incubation at 37° C. for 2 minutes. Subsequently, 2 μL of 2 mM ADP was added (final concentration 20 μM) to induce platelet aggregation.
Platelet aggregation was measured for 8 minutes using an aggregometer (MCM HEMA TRACER 313M; MC MEDICAL, INC.). With the light transmittance rate of PPP being set as an aggregation value of 100%, the maximum aggregation rate was determined for each concentration of the test compounds to calculate IC50 values.

Test [2] concerns platelet aggregation induced by ADP in rat platelet-rich plasma (PRP). Nature of the test: Platelet aggregation inhibitory activity during oral administration in a rat (ex vivo, ADP-induced). Conditions: male Wistar rats, 1 mg/10 ml/kg orally, blood collected 4 hours after administration, ADP final concentration 3 μM, vs. control PRP (solvent only), read-out: Inhibition Rates (%). On the procedure: 1 mg/10 ml/kg of the test compound was orally administered by gavage to male rats (Slc: Wistar, age 8 to 9 weeks) that had been fasted overnight. 4 hours after administration, a syringe containing 1/10 volume of a 3.13% sodium citrate solution was used to collect blood from the abdominal aorta of a rat under anesthesia. From the collected blood, platelet-rich plasma (PRP) and platelet-poor plasma (PPP) were prepared according to the method described in the method for measuring human platelet aggregation inhibitory activity. PRP was left at rest at 16° C. for 30 minutes, and subsequently used for measurement.
200 μL of the separately collected PRP was dispensed into a cuvette for the aggregation test, followed by incubation at 37° C. for 2 minutes, and subsequently 2 μL of 0.3 mM ADP was added (final concentration 3 μM) to induce platelet aggregation.
Platelet aggregation was measured for 8 minutes using an aggregometer (MCM HEMA TRACER 313M; MC MEDICAL, INC.). With the light transmittance rate of PPP being set as an aggregation value of 100%, the maximum aggregation rate of PRP was determined, and compared with the maximum aggregation rate of control PRP (rat administered only with a solvent) to calculate inhibition rates.

For orientation: IC50 means the concentration at which inhibition is half-maximal. A word on the inhibition: it is the percentage by which the read-out fell short of the control. As to `C[C@@H]1Oc2ncc(Cl)cc2N(C2CCN(C(=O)c3ccc(-c4cc(F)ccc4OC[C@H](C)C(=O)O)cc3F)CC2)C1=O` [Example 26, (2S)-3-{[4′-({4-[(3S)-7-Chloro-3-methyl-2-oxo-2,3-dihydro-1H-pyrido[2,3-b][1,4]oxazin-1-yl]piperidin-1-yl}carbonyl)-3′,5-difluorobiphenyl-2-yl]oxy}-2-methylpropanoic acid], in test [1], the IC50 worked out at 7.3 µM. Also, the inhibition at 1 mg/kg in test [2] worked out at 55%.
Take `C[C@@H](COc1ccc(F)cc1-c1ccc(C(=O)N2CCC(N3C(=O)C(C)(C)Oc4ncc(Cl)cc43)CC2)c(F)c1)C(=O)O` [Example 27, (2S)-3-[(4′-{[4-(7-Chloro-3,3-dimethyl-2-oxo-2,3-dihydro-1H-pyrido[2,3-b][1,4]oxazin-1-yl)piperidin-1-yl]carbonyl}-3′,5-difluorobiphenyl-2-yl)oxy]-2-methylpropanoic acid]: in test [1], the midpoint of inhibition, the IC50, lay at 6.5 µM. Also, the inhibition at 1 mg/kg in test [2] is 36%.
The compound `C[C@H](CC(=O)O)Oc1ccccc1-c1ccc(C(=O)N2CCC(N3C(=O)[C@H](C)Oc4ncc(Cl)cc43)CC2)c(F)c1` [Example 28, (3R)-3-{[4′-({4-[(3S)-7-Chloro-3-methyl-2-oxo-2,3-dihydro-1H-pyrido[2,3-b][1,4]oxazin-1-yl]piperidin-1-yl}carbonyl)-3′-fluorobiphenyl-2-yl]oxy}butanoic acid] displayed an IC50 in test [1] of 1.8 µM. Moreover, the inhibition at 1 mg/kg in test [2] was 74%.
Consider `C[C@H](CC(=O)O)Oc1ccc(F)cc1-c1ccc(C(=O)N2CCC(N3C(=O)[C@H](C)Oc4ncc(Cl)cc43)CC2)c(F)c1` [Example 29, (3R)-3-{[4′-({4-[(3S)-7-Chloro-3-methyl-2-oxo-2,3-dihydro-1H-pyrido[2,3-b][1,4]oxazin-1-yl]piperidin-1-yl}carbonyl)-3′,5-difluorobiphenyl-2-yl]oxy}butanoic acid], for which, in test [1], the IC50 was 4.3 µM. For the same compound, in test [2], the inhibition at 1 mg/kg is 75%.
In test [1], `C[C@H](CC(=O)O)Oc1ccccc1-c1cc(F)c(C(=O)N2CCC(N3C(=O)C(C)(C)Oc4ncc(Cl)cc43)CC2)cc1F` [Example 34, (3R)-3-[(4′-{[4-(7-Chloro-3,3-dimethyl-2-oxo-2,3-dihydro-1H-pyrido[2,3-b][1,4]oxazin-1-yl)piperidin-1-yl]carbonyl}-2′,5′-difluorobiphenyl-2-yl)oxy]butanoic acid] had an IC50 of 2.3 µM. Besides, the inhibition at 1 mg/kg in test [2] was 55%.
`C[C@H](CC(=O)O)Oc1cc(F)ccc1-c1ccc(C(=O)N2CCC(N3C(=O)C(C)(C)Oc4ncc(Cl)cc43)CC2)c(F)c1` [Example 35, (3R)-3-[(4′-{[4-(7-Chloro-3,3-dimethyl-2-oxo-2,3-dihydro-1H-pyrido[2,3-b][1,4]oxazin-1-yl)piperidin-1-yl]carbonyl}-3′,4-difluorobiphenyl-2-yl)oxy]butanoic acid]: the midpoint of inhibition in test [1], the IC50, lay at 3.6 µM. In addition, the inhibition at 1 mg/kg in test [2] is 96%.
`Cc1cc(-c2ccccc2O[C@H](C)CC(=O)O)ccc1C(=O)N1CCC(N2C(=O)C(C)(C)Cc3ncc(Cl)cc32)CC1` [Example 36, (3R)-3-[(4′-{[4-(7-Chloro-3,3-dimethyl-2-oxo-3,4-dihydro-1,5-naphthyridin-1(2H)-yl)piperidin-1-yl]carbonyl}-3′-methylbiphenyl-2-yl)oxy]butanoic acid] displayed an IC50 in test [1] of 5.2 µM. Also, the inhibition at 1 mg/kg in test [2] is 47%.
`C[C@H](CC(=O)O)Oc1ccccc1-c1cnc(C(=O)N2CCC(N3C(=O)C(C)(C)Cc4ncc(Cl)cc43)CC2)c(F)c1` [Example 38, (3R)-3-[2-(6-{[4-(7-Chloro-3,3-dimethyl-2-oxo-3,4-dihydro-1,5-naphthyridin-1(2H)-yl)piperidin-1-yl]carbonyl}-5-fluoropyridin-3-yl)phenoxy]butanoic acid] gave an IC50 in test [1] of 2 µM. For the same compound, the inhibition at 1 mg/kg in test [2] came to 52%.
For the compound `CC[C@H](CC(=O)O)Oc1ccccc1-c1cnc(C(=O)N2CCC(N3C(=O)C(C)(C)Oc4ncc(Cl)cc43)CC2)c(F)c1` [Example 41, (3R)-3-[2-(6-{[4-(7-Chloro-3,3-dimethyl-2-oxo-2,3-dihydro-1H-pyrido[2,3-b][1,4]oxazin-1-yl)piperidin-1-yl]carbonyl}-5-fluoropyridin-3-yl)phenoxy]pentanoic acid], the IC50 in test [1] is 5.7 µM. Moreover, in test [2], the inhibition at 1 mg/kg turned out to be 56%.
Taken in the same sequence, the figures for `C[C@H](CC(=O)O)Oc1ccc(F)cc1-c1cnc(C(=O)N2CCC(N3C(=O)C(C)(C)Oc4ncc(Cl)cc43)CC2)c(F)c1` [Example 42, (3R)-3-[2-(6-{[4-(7-Chloro-3,3-dimethyl-2-oxo-2,3-dihydro-1H-pyrido[2,3-b][1,4]oxazin-1-yl)piperidin-1-yl]carbonyl}-5-fluoropyridin-3-yl)-4-fluorophenoxy]butanoic acid] were 1.4 µM and 54%.
For `C[C@H](CC(=O)O)Oc1ccc(F)cc1-c1cnc(C(=O)N2CCC(N3C(=O)C(C)(C)Cc4ncc(Cl)cc43)CC2)c(F)c1` [Example 44, (3R)-3-[2-(6-{[4-(7-Chloro-3,3-dimethyl-2-oxo-3,4-dihydro-1,5-naphthyridin-1(2H)-yl)piperidin-1-yl]carbonyl}-5-fluoropyridin-3-yl)-4-fluorophenoxy]butanoic acid], in that order: 3.4 µM and 55%.
In turn, `Cc1cc(-c2cc(F)ccc2O[C@H](C)CC(=O)O)ccc1C(=O)N1CCC(N2C(=O)C(C)(C)Cc3ncc(Cl)cc32)CC1` [Example 45, (3R)-3-[(4′-{[4-(7-Chloro-3,3-dimethyl-2-oxo-3,4-dihydro-1,5-naphthyridin-1(2H)-yl)piperidin-1-yl]carbonyl}-5-fluoro-3′-methylbiphenyl-2-yl)oxy]butanoic acid] came in with a 50% inhibitory concentration (IC50) in test [1] of 11 µM. For the same compound, the inhibition at 1 mg/kg in test [2] came out at 51%.
The compound `C[C@@H](COc1ccccc1-c1cnc(C(=O)N2CCC(N3C(=O)C(C)(C)Cc4ncc(Cl)cc43)CC2)c(F)c1)C(=O)O` [Example 46, (2S)-3-[2-(6-{[4-(7-Chloro-3,3-dimethyl-2-oxo-3,4-dihydro-1,5-naphthyridin-1(2H)-yl)piperidin-1-yl]carbonyl}-5-fluoropyridin-3-yl)phenoxy]-2-methylpropanoic acid] yielded an IC50 in test [1] of 1.8 µM. Further, the inhibition at 1 mg/kg in test [2] is 31%.
For `C[C@H](CC(=O)O)Oc1ccccc1-c1ccc(C(=O)N2CCC(N3C(=O)C(C)(C)Oc4ncc(Cl)cc43)CC2)c(N)c1` [Example 50, (3R)-3-[(3′-Amino-4′-{[4-(7-chloro-3,3-dimethyl-2-oxo-2,3-dihydro-1H-pyrido[2,3-b][1,4]oxazin-1-yl)piperidin-1-yl]carbonyl}biphenyl-2-yl)oxy]butanoic acid], in that order: 0.87 µM and 53%.
The compound `C[C@H](CC(=O)O)Oc1ccccc1-c1cc(F)c(C(=O)N2CCC(N3C(=O)C(C)(C)Oc4ncc(Cl)cc43)CC2)c(F)c1` [Example 51, (3R)-3-[(4′-{[4-(7-Chloro-3,3-dimethyl-2-oxo-2,3-dihydro-1H-pyrido[2,3-b][1,4]oxazin-1-yl)piperidin-1-yl]carbonyl}-3′,5′-difluorobiphenyl-2-yl)oxy]butanoic acid] had an IC50 in test [1] of 7.7 µM. In test [2], the inhibition at 1 mg/kg turned out to be 75%.
As for `C[C@H](CC(=O)O)Oc1ccccc1-c1ccc(C(=O)N2CCC(N3C(=O)C(C)(C)Oc4ncc(C#N)cc43)CC2)c(F)c1` [Example 52, (3R)-3-[(4′-{[4-(7-Cyano-3,3-dimethyl-2-oxo-2,3-dihydro-1H-pyrido[2,3-b][1,4]oxazin-1-yl)piperidin-1-yl]carbonyl}-3′-fluorobiphenyl-2-yl)oxy]butanoic acid], in test [1], the IC50 stood at 2.3 µM. Moreover, the inhibition at 1 mg/kg in test [2] is 71%.
`CCc1cnc2c(c1)N(C1CCN(C(=O)c3ccc(-c4ccccc4O[C@H](C)CC(=O)O)cc3F)CC1)C(=O)C(C)(C)O2` [Example 53, (3R)-3-[(4′-{[4-(7-Ethyl-3,3-dimethyl-2-oxo-2,3-dihydro-1H-pyrido[2,3-b][1,4]oxazin-1-yl)piperidin-1-yl]carbonyl}-3′-fluorobiphenyl-2-yl)oxy]butanoic acid]: the midpoint of inhibition in test [1], the IC50, lay at 6.4 µM. The inhibition at 1 mg/kg in test [2] came out at 44%.
`Cc1ccc(-c2ccc(C(=O)N3CCC(N4C(=O)C(C)(C)Oc5ncc(Cl)cc54)CC3)c(F)c2)c(O[C@H](C)CC(=O)O)c1` [Example 55, (3R)-3-[(4′-{[4-(7-Chloro-3,3-dimethyl-2-oxo-2,3-dihydro-1H-pyrido[2,3-b][1,4]oxazin-1-yl)piperidin-1-yl]carbonyl}-3′-fluoro-4-methylbiphenyl-2-yl)oxy]butanoic acid]: the IC50 in test [1] was determined as 8.4 µM. For the same compound, the inhibition at 1 mg/kg in test [2] amounted to 68%.
